In PubChem BioAssay (NCI) one finds TGI and GI50 data, which are given here for ten molecules.

Some test systems named below: SK-MEL-28 melanoma; SNB-75 CNS; SW-620 colon; SK-MEL-2 melanoma; LOX IMVI melanoma; SF-539 CNS; ACHN renal; K-562 leukemia; CCRF-CEM leukemia.
Assay in all cases: NCI anticancer screen, dose series, 48 h

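Dose response: 5 concentrations. Exposure: 48 h. Format: 96-well plates. Endpoint: linear interpolation; highest concentration if not reached. GI50 is the concentration that inhibits growth by half. TGI denotes the concentration required for complete inhibition of growth.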 Where a SMILES comes first, the peptide text is derived from it. [ ]: non-standard residue; d: D form.

In the case of `Cc1cc(C)[n+]2c(c1)C=CC2`, the TGI was over 100 µM in the assay on SK-MEL-28 melanoma; 41.9 µM in the assay on SNB-75 CNS; over 100 µM in the assay on SW-620 colon; 93.8 µM with SK-MEL-2 melanoma; over 100 µM in the assay on LOX IMVI melanoma; 79.4 µM with SF-539 CNS. The molecule further had a TGI in the assay on ACHN renal of over 100 µM.

For `Clc1ccc(C2SCc3nc4ccccc4n32)cc1` (stereo unspecified), the TGI in the assay with SK-MEL-28 melanoma was 68.1 µM; in the assay on K-562 leukemia, over 100 µM; with SNB-75 CNS, 24.9 µM; in the assay on SW-620 colon it was over 100 µM; in the assay with SK-MEL-2 melanoma it was 33 µM; in the assay on LOX IMVI melanoma, 40.6 µM. Further, the TGI in the assay with SF-539 CNS was 76.8 µM; in the assay with CCRF-CEM leukemia it was 78.9 µM; in the assay on ACHN renal it was over 100 µM.

`O=S(=O)(O)c1cc(S(=O)(=O)O)c2cc(N=Nc3ccc(N=Nc4ccc(/C=C/c5ccc(N=[N+]([O-])c6ccc(/C=C/c7ccc(N=Nc8ccc(N=Nc9ccc%10cc(S(=O)(=O)O)cc(S(=O)(=O)O)c%10c9)cc8)cc7S(=O)(=O)O)c(S(=O)(=O)O)c6)cc5S(=O)(=O)O)c(S(=O)(=O)O)c4)cc3)ccc2c1`: the TGI with SK-MEL-28 melanoma, in the assay with K-562 leukemia, in the assay on SNB-75 CNS, with SK-MEL-2 melanoma, in the assay on LOX IMVI melanoma and with SF-539 CNS was over 100 µM throughout. The TGI with CCRF-CEM leukemia is over 100 µM.

Regarding `COCC(C#N)NC1CC(OC2CC(O)(C(=O)CO)Cc3c(O)c4c(c(O)c32)C(=O)c2c(OC)cccc2C4=O)OC(C)C1O` (stereo unspecified), the TGI with SK-MEL-28 melanoma was 0.527 µM; in the assay with K-562 leukemia, 1.11 µM; in the assay with SNB-75 CNS, 0.373 µM; with SW-620 colon it was 4.8 µM; in the assay on SK-MEL-2 melanoma it was 0.316 µM; with LOX IMVI melanoma, 0.599 µM. Besides, the TGI came out at 0.365 µM in the assay on SF-539 CNS, 1.69 µM with CCRF-CEM leukemia and 5.46 µM in the assay with ACHN renal.

Turning to `COC(=O)/C1=C/C=C\C[C@@]2(C)CC(c3ccoc3)OC(=O)[C@@H]2CC[C@H]1C` (stereo partly specified), the TGI in the assay with SK-MEL-28 melanoma, in the assay on K-562 leukemia, with SNB-75 CNS, in the assay with SW-620 colon, in the assay on SK-MEL-2 melanoma and with LOX IMVI melanoma was over 25 µM in each case. The TGI with SF-539 CNS, with CCRF-CEM leukemia and in the assay on ACHN renal was over 25 µM throughout.

With `CC(=O)/C=C(/C)[O-].CC(=O)/C=C(/C)[O-].CC(=O)[CH-]C(C)=O.CC(=O)[CH-]C(C)=O.[Zr+4]`, the GI50 in the assay on SK-MEL-28 melanoma, in the assay with K-562 leukemia, in the assay with SNB-75 CNS, in the assay on SK-MEL-2 melanoma, with LOX IMVI melanoma and with SF-539 CNS was over 100 µM throughout. For the same molecule, the GI50 with CCRF-CEM leukemia and in the assay on ACHN renal was over 100 µM each time. In addition, the TGI in the assay with SK-MEL-28 melanoma, in the assay on K-562 leukemia, in the assay with SNB-75 CNS, in the assay on SK-MEL-2 melanoma, in the assay on LOX IMVI melanoma and in the assay with SF-539 CNS was over 100 µM in each case. Besides, the TGI in the assay on CCRF-CEM leukemia and in the assay with ACHN renal was over 100 µM in each case.

For the molecule `CC(C)C[C@H](NC(=O)[C@H](CC(C)C)NC(=O)[C@@H](Cc1c[nH]c2ccccc12)NC(=O)[C@H](Cc1ccccc1)NC(=O)[C@@H](Cc1c[nH]c2ccccc12)NC(=O)[C@H](CCC(N)=O)NC(=O)[C@@H](CCC(N)=O)NC(=O)[C@@H]1CCCN1C(=O)[C@@H](CCCCN)NC(=O)[C@H]1CCCN1C(=O)[C@H](N)CCCN=C(N)N)C(N)=O` (H-[dR][dP][dK]P[dQ]Q[dW]F[dW]LL-NH2), the TGI in the assay with SK-MEL-28 melanoma, with K-562 leukemia, in the assay with SNB-75 CNS, with SW-620 colon, in the assay with SK-MEL-2 melanoma and in the assay on LOX IMVI melanoma was over 100 µM throughout. The TGI in the assay with SF-539 CNS and in the assay with CCRF-CEM leukemia was over 100 µM throughout.

Turning to `[N-]=[N+]=Nc1cc(=O)[nH]c2ccccc12`, the TGI in the assay with SK-MEL-28 melanoma, with K-562 leukemia, in the assay on SNB-75 CNS, with SW-620 colon, in the assay on SK-MEL-2 melanoma and with SF-539 CNS was over 100 µM throughout. For the same molecule, the TGI in the assay with CCRF-CEM leukemia and in the assay on ACHN renal was over 100 µM each time.

`O=C1C(Cl)N(c2ccc([N+](=O)[O-])cc2)C1c1c[nH]c2ccccc12` (stereo unspecified): the TGI in the assay on SK-MEL-28 melanoma, in the assay with K-562 leukemia, in the assay on SNB-75 CNS, in the assay on SW-620 colon, in the assay with SK-MEL-2 melanoma and in the assay on SF-539 CNS was over 100 µM throughout. Also, the TGI with CCRF-CEM leukemia was over 100 µM.

For `O=C1Sc2ccccc2C(=O)N2CCSC12` (stereo unspecified), the TGI with SK-MEL-28 melanoma, in the assay on K-562 leukemia, in the assay with SW-620 colon, in the assay with SK-MEL-2 melanoma, in the assay with LOX IMVI melanoma and in the assay on CCRF-CEM leukemia was over 100 µM throughout.
